Values quoted from earlier work, collected in patent US7847105B2, “Methods and compounds for preparing CC-1065 analogs” (Medarex, Inc., priority 2005, dated 2010).

Experiments:
[1] = both in vitro and in experimental animals
experimental animals = settings: reason why it cannot be used in humans

CC-1065
antitumor and antimicrobial activity [1]: potent antitumor and antimicrobial activity
toxicity in experimental animals (experimental animals): causes delayed death
